Results taken from patent US20240294499A1, “TARGETED PROTEIN DEGRADATION USING BIFUNCTIONAL COMPOUNDS THAT BIND UBIQUITIN LIGASE AND TARGET MCL-1 PROTEIN” (Captor Therapeutics S.A., priority 2021, published 2024).

Key:
MV-4-11 cells = test: Cell viability assay (CellTiter-Glo), MV-4-11; assay type: cell-based; details: Homo sapiens, MV4-11, 24 hours incubation, 1% FBS, read-out: Average pIC50 by molecule MV-4-11 (converted)
Excerpt: (§1) The effect of various compounds of the invention on the viability of OPM-2, MV-4-11 and ARH-77 cell lines was investigated, using the CTG protocol described below.
(§2) OPM-2 and MV-4-11 cell lines are derived from multiple myeloma and acute myeloid leukaemia, respectively. Both cell lines are described in the literature as MCL-1 dependent lines, as opposed to lymphoblast-like ARH-77 cell line, which is described as independent of MCL-1 (Tron A E et al. Nat Commun. 2018; 9: 5341; Caenepeel S et al. Cancer Discov. 2018 December; 8(12):1582-1597).
(§3) Cells (OPM-2, MV-4-11 or ARH-77) were seeded on […] in a growth medium with FBS reduced to 1%. Next, compound stocks were pre-diluted in DMSO and added directly to the cells growth medium (final DMSO concentration: 0.5%). Compound concentrations used in this assay: 1/3 dilutions starting at 30 uM (9 to 12 points).
(§4) After 24 hours of incubation, cell viability was evaluated using CellTiter-Glo Luminescent Cell Viability Assay (Promega, cat #G7572). Luminescence signal was measured using a CLARIOstar Plus Multi-Mode Microplate Reader (574-590 nm).
(§5) Results were normalized to DMSO control.

ARH-77 cells = test: Cell viability assay (CellTiter-Glo), ARH-77; assay type: cell-based; details: Homo sapiens, ARH-77, 24 hours incubation, 1% FBS, read-out: Average pIC50 by molecule ARH-77 (converted)
Excerpt: as §1, §2, §3, §4, §5

[1] = target: [MCL-1]-[compound of formula (I)]-[CRBN/DDB1] complex (Homo sapiens, UniProt Q07820+Q96SW2); test: AlphaLISA dose response ternary complex formation assay; assay type: binding; details: read-out: AlphaLISA dose response Average pEC50 by molecule (converted)
Description: The effect of the bifunctional compounds of the invention on the formation of a ternary complex composed of [MCL-1]-[compound of formula (I)]-[CRBN/DDB1] was investigated with two methods: AlphaLISA dose response assay or HTRF ternary complex assay.
Two types of protein solution were prepared: • 40 nM biotinylated hMCL-1, 40 μg/ml AlphaScreen Streptavidin-coated Donor Beads in PBS buffer with 0.1% Tween-20 and 1 mM DTT, • 200 nM 6×His-CRBN/Strep-DDB1, 40 μg/ml AlphaLISA Anti-6×His Acceptor beads in PBS buffer with 0.1% Tween-20 and 1 mM DTT.
The prepared solutions were incubated at room temperature for 45 min and then the solution containing the donor beads was mixed with the solution containing the acceptor beads.
The tested compounds were dispensed onto a white 384-well AlphaPlate 384 SW. DMSO was backfilled to all wells, resulting in a final DMSO content of 2%. Wells containing only DMSO served as background. Next, 10 μl of solution with donor and acceptor beads was added to the wells.
The plate was sealed with transparent film and shaken using a VibroTurbulator for 60 see at room temperature, level 3. The plate was then spun down shortly (10 s, 1000 rcf, room temperature) and incubated at 25° C. for 30 min.
The read-out was performed with PerkinElmer Enspire Multimode Plate Reader (method for AlphaLISA 384-well low volume, Filterset: λexc=680 nm, λem=615 nm).
The results were analyzed as follows: • 1) an average of luminescence for background signal was calculated and used as a negative control; • 2) average of the maximum measured luminescence for 233 was calculated and used as an internal positive control; • 3) raw luminescence values were normalized against positive and negative controls; • 4) concentration points above the hook point were excluded; • 5) EC50 and pEC50 values were determined.

[MCL-1]-[compound of formula (I)]-[CRBN/DDB1] complex, sequence (Q07820 whole entry): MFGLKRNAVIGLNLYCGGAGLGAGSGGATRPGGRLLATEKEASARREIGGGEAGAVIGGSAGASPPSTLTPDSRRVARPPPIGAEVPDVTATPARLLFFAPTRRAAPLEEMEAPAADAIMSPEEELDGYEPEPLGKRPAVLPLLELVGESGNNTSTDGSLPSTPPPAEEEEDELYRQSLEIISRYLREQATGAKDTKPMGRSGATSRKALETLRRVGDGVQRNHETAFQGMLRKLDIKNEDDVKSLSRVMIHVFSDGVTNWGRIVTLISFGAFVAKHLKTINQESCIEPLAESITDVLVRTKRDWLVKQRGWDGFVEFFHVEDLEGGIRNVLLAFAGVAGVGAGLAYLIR
[MCL-1]-[compound of formula (I)]-[CRBN/DDB1] complex, sequence (Q96SW2 whole entry): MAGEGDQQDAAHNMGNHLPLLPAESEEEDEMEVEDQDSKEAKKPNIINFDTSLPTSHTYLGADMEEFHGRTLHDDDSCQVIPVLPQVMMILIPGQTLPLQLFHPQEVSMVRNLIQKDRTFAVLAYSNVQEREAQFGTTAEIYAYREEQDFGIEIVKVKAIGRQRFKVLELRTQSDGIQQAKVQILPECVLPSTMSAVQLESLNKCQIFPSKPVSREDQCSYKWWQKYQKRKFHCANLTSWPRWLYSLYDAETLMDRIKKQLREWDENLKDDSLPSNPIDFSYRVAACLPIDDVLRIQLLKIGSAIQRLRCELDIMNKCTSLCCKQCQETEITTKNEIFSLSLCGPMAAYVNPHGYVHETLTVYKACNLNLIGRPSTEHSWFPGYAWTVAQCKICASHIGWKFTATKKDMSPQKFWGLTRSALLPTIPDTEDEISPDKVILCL
[MCL-1]-[compound of formula (I)]-[CRBN/DDB1] complex, sequence (Q16531 whole entry partner): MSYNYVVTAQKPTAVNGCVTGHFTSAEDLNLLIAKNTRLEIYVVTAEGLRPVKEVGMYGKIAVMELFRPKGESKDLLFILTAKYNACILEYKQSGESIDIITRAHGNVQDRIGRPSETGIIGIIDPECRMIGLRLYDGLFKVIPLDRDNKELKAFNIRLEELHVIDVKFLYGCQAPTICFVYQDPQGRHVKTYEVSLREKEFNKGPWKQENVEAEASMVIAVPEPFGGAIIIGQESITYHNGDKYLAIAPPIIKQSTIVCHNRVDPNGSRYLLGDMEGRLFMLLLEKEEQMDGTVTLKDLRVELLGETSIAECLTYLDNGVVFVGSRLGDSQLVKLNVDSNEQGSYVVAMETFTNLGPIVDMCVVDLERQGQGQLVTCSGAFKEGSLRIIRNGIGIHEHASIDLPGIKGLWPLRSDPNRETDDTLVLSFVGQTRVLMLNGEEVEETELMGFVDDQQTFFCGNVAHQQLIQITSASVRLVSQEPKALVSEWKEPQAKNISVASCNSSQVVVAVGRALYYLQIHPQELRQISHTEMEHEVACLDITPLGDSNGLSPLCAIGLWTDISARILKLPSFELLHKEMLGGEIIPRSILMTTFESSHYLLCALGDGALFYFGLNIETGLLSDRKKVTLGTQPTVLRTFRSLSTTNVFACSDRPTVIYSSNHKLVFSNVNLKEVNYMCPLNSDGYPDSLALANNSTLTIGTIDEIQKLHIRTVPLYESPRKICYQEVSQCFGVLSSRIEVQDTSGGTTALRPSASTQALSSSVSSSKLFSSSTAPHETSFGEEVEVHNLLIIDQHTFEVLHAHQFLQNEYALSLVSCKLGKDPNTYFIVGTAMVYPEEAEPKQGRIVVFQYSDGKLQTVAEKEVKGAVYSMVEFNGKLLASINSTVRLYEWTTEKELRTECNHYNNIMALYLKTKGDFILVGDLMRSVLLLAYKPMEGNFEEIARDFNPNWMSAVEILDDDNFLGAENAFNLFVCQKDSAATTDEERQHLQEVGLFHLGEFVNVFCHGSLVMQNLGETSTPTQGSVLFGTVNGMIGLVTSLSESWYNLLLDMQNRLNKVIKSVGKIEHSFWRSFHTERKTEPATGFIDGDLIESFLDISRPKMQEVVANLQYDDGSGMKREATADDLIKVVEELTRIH

Row | IC50 (MV-4-11 cells) | EC50 [1] | Compound | IC50 (ARH-77 cells)
1 | ≤ 1 µM |  | Cc1nc2cccc(NCC(=O)N3CCN(CCn4c(C(=O)O)c(CCCOc5cccc6cc(F)ccc56)c5ccc(Cl)c(-c6c(C)nn(C)c6C)c54)CC3)c2cc1C1CCC(=O)NC1=O (centres unmarked) [Compound 287, 6-Chloro-1-{2-[4-(2-{[3-(2,6-dioxopiperidin-3-yl)-2-methylquinolin-5-yl]amino}acetyl)piperazin-1-yl]ethyl}-3-{3-[(6-fluoronaphthalen-1-yl)oxy]propyl}-7-(1,3,5-trimethyl-1H-pyrazol-4-yl)-1H-indole-2-carboxylic acid] | > 3.16 µM
2 | ≤ 0.1 µM |  | Cc1nn(C)c(C)c1-c1c(Cl)ccc2c(CCCOc3cccc4cc(F)ccc34)c(C(=O)O)n(CCN3CCN(C(=O)[C@H](C)Oc4cccc5c4C(=O)N([C@@H]4CCC(=O)NC4=O)C5=O)CC3)c12 (single isomer, unassigned) [Compound 320] | > 10 µM
3 | ≤ 0.1 µM |  | Cc1nn(C)c(C)c1-c1c(Cl)ccc2c(CCCOc3cccc4cc(F)ccc34)c(C(=O)O)n(CCN3CCN(C(=O)COc4cccc5c4CN([C@@H]4CCC(=O)NC4=O)C5=O)CC3)c12 [Compound 297, (R)-6-Chloro-1-(2-(4-(2-((2-(2,6-dioxopiperidin-3-yl)-1-oxoisoindolin-4-yl)oxy)acetyl)piperazin-1-yl)ethyl)-3-(3-((6-fluoronaphthalen-1-yl)oxy)propyl)-7-(1,3,5-trimethyl-1H-pyrazol-4-yl)-1H-indole-2-carboxylic acid] | > 10 µM

The next lines start with the compound.

Row | Compound | IC50 (MV-4-11 cells) | EC50 [1] | IC50 (ARH-77 cells)
4 | Cc1cc(OCCCc2c(C(=O)O)n(CCN3CCN(C(=O)CCOCCOCCOCCOCCOCCOCCNc4cccc5c4C(=O)N(C4CCC(=O)NC4=O)C5=O)CC3)c3c(-c4c(C)nn(C)c4C)c(Cl)ccc23)cc(C)c1Cl (centres unmarked) [Compound 203, 6-chloro-3-[3-(4-chloro-3,5-dimethylphenoxy)propyl]-1-{2-(4-(1-{(2-(2,6-dioxopiperidin-3-yl)-1,3-dioxo-2,3-dihydro-1H-isoindol-4-yl]amino}-3,6,9,12,15,18-hexaoxahenicosanoyl)piperazin-1-yl]ethyl}-7-(1,3,5-trimethyl-1H-pyrazol-4-yl)-1H-indole-2-carboxylic acid] | ≤ 1 µM | < 0.1 µM | 
5 | Cc1c(-c2cccc3c(CCCOc4cccc5ccccc45)c(C(=O)O)n(CCN4CCN(C(=O)COc5cccc6c5C(=O)N(C5CCC(=O)NC5=O)C6=O)CC4)c23)c(COc2ccc(Br)c(C=O)c2)nn1C (centres unmarked) [Compound 251, 7-(3-((4-Bromo-3-formylphenoxy)methyl)-1,5-dimethyl-1H-pyrazol-4-yl)-1-(2-(4-(2-((2-(2,6-dioxopiperidin-3-yl)-1,3-dioxoisoindolin-4-yl)oxy)acetyl)piperazin-1-yl)ethyl)-3-(3-(naphthalen-1-yloxy)propyl)-1H-indole-2-carboxylic acid] |  | < 0.1 µM | 
6 | Cc1cc(OCCCc2c(C(=O)O)n(C)c3c(-c4c(C)nn(CCCOCCOCCNc5cccc6c5C(=O)N(C5CCC(=O)NC5=O)C6=O)c4C)cccc23)cc(C)c1Cl (centres unmarked) [Compound 227, 3-(3-(4-chloro-3,5-dimethylphenoxy)propyl)-7-(1-(3-(2-(2-((2-(2,6-dioxopiperidin-3-yl)-1,3-dioxoisoindolin-4-yl)amino)ethoxy)ethoxy)propyl)-3,5-dimethyl-1H-pyrazol-4-yl)-1-methyl-1H-indole-2-carboxylic acid] |  | < 1 µM | 
7 | Cc1nn(C)c(C)c1-c1c(Cl)ccc2c(CCCOc3cccc4c3CCCC4)c(C(=O)O)n(CCN3CCN(C(=O)COc4cccc5c4CN(C4CCC(=O)NC4=O)C5=O)CC3)c12 (centres unmarked) [Compound 219, 6-chloro-1-(2-(4-(2-((2-(2,6-dioxopiperidin-3-yl)-1-oxoisoindolin-4-yl)oxy)acetyl)piperazin-1-yl)ethyl)-3-(3-((5,6,7,8-tetrahydronaphthalen-1-yl)oxy)propyl)-7-(1,3,5-trimethyl-1H-pyrazol-4-yl)-1H-indole-2-carboxylic acid] |  | < 0.01 µM | 
